# Where two headings read alike, the source gives them in different places.
# Columns and labels:
# Colo205 = test system: Colo205; design: method as in PMID 32500882; settings: 72 h exposure; cited from earlier work
# MES-SA = experiment: In vitro cytotoxicity, MES-SA cells (fluorescent protein readout); type: cell-based, human; settings: 144 h exposure
# From the text: (§1) Cell lines: all cell culture reagents were obtained from Sigma-Aldrich; plasticware was purchased from Sarstedt (Nümbrecht, Germany); Human colon Colo205 (chemo-sensitive, ATCC-CCL-222) and Colo320 (Pgp/MDR1-expressing, doxorubicin-resistant, ATCC-CCL-220.1) adenocarcinoma cell lines were purchased from LGC Promochem, Teddington, UK; MES-SA and MES-SA/Dx5 uterine sarcoma cell lines were obtained from ATCC, where they were characterized by DNA fingerprinting. The expression of the Pgp efflux pump of MES-SA/Dx5 was proven by Western blot analysis in our former report, and was also reported for the Colo320 cells. The MES-SA and MES-SA/Dx5 cells used in this study were previously engineered to express the fluorescent proteins mCherry and eGFP, respectively, by lentiviral transduction.
# (§2) MES-SA cell lines were maintained in DMEM, supplemented with 10% fetal bovine serum, 5 mmol/L glutamine, and 50 units/mL penicillin and streptomycin. Cells were tested and resulted negative for mycoplasma contamination with the MycoAlert mycoplasma detection Kit (Lonza Group, Basel, Switzerland). One week prior to the cytotoxicity assays, Dx5 eGFP cells were selected in 500 nM doxorubicin for one passage to ensure the overexpression of P-glycoprotein.
# (§3) Cytotoxicity assays: The tested compounds were dissolved in PBS buffer to prepare 5 mM stock solutions, which were diluted in complete culture medium.
# (§4) In the case of the MES-SA and MES-SA/Dx5 cells, cell suspensions of the fluorescent cell lines were pre-mixed in a 1:1 ratio and seeded in 20 µL medium in a density of 2500 cells/well (1250 cells/well each) in a 384-well plate. After an overnight incubation, a serial dilution of the compounds was added to the plate in a final volume of 60 µL. The P-gp inhibitor tariquidar was added to the cells 15 min prior to the test compounds. After 144 h of incubation, plates were measured for the fluorescent intensity of mCherry (EX/EM: 585 nm/610 nm) and eGFP (EX/EM: 485 nm/510 nm). Cell seeding, aspiration of medium, and addition of drugs were performed by a Hamilton StarLet automated liquid handling robot.
# (§5) Inhibition of the cell growth (expressed as IC50: inhibitory concentration that reduces by 50% the growth of the cells exposed to the tested compounds) was determined from the sigmoid curve where 100 − ((ODsample − ODmedium control)/(ODcell control − ODmedium control)) × 100 values were plotted against the logarithm of compound concentrations. Curves for the data obtained on Colo205 and Colo320 cells were fitted by GraphPad Prism software (2021, Graphpad Software, version 7.00, San Diego, CA, USA) using the sigmoidal dose–response model (comparing variable and fixed slopes). From the MES-SA cell data, the IC50 values were calculated by our custom program, written by J. Sessler in C#. The p values were calculated by Student’s t-test. The IC50 values were always obtained from at least three independent experiments.
# [1] = design: method as in earlier work; settings: pH 7.40, cited from earlier work
# Colo320 = test system: Colo320; design: method as in PMID 32500882; settings: cited from earlier work; for IC50: 72 h exposure; for Selectivity ratio IC50 (Colo205)/IC50 (Colo320): calculated from IC50 values taken from ref 12
# [2] = Aqueous solubility at physiological pH (S7.4); type: physicochemical; settings: pH 7.4
# MES-SA/Dx5 = experiment: In vitro cytotoxicity, MES-SA/Dx5 cells (fluorescent protein readout); type: cell-based, human
# From the text: as §1, §2, §3, §4, §5
# [3] = design: method as in PMID 32500882; settings: cited from earlier work
# [4] = Proton dissociation constants (pKa) of the ligand by pH-potentiometric, UV-vis and 1H NMR titrations; type: physicochemical; settings: pH 7.4
# Experimental: Characterization of the protonation/deprotonation equilibrium processes of a bioactive molecule is important to reveal its actual chemical form and charge at a given pH. The proton dissociation constant (Ka) is a key physico-chemical parameter since it has an impact on many biopharmaceutical characteristics such as lipophilicity, water solubility, and albumin binding, which in turn directly influences pharmacokinetics. The pKa values of the protonated HQNO2-L-Pro were determined by pH-potentiometric, UV-vis (Figure 1a), and ^1H NMR spectroscopic titrations (Table 1).
# The pH-potentiometric measurements were carried out at 25.0 ± 0.1 °C in water in the pH range between 2.0 and 11.5 at a constant ionic strength of 0.2 M KNO3. The titrations were performed in a carbonate-free KOH solution (0.20 or 0.10 M). The exact concentrations of HNO3, HCl, and KOH solutions were always determined by pH-potentiometric titrations. An Orion 710A pH-meter equipped with a Metrohm combined electrode (type 6.0234.100) and a Metrohm 665 Dosimat burette were used for the measurements. […] The average water ionization constant (pKw) was determined as 13.76 ± 0.01, which is in good agreement with the literature data. In the case of the titrations in 30% (v/v) DMSO/H2O, the calibration of the pH-potentiometric system was conducted as in our former works. Samples were degassed by bubbling purified argon through them for about 10 min prior to the measurements, and the inert gas was also passed over the solutions during the titrations. Stoichiometry of the species and their equilibrium constants were obtained similarly to that performed in our previous works, with the use of computer program Hyperquad2013 [50].
# An Agilent Cary 8454 diode array spectrophotometer (Santa Clara, CA, USA) was used to obtain UV-vis spectra in the wavelength range 200–1000 nm, while spectra were recorded for the Fe(II)-containing samples using an Avantes (Avantes B.V., Apeldoorn, The Nederlands) AvaSpec-ULS2048CL-EVO spectrometer with an AvaLight-DHc light source and FDP-7UVIR200-2-VAR transmission dip probe. The titrations for the Fe(II)-containing samples were performed in a laboratory glove box (GP(Campus), Jacomex) (O2 content ≤ 1 ppm). The path length (ℓ) was 1 cm in most cases (the actual ℓ is always indicated in the legends of the figures). The concentrations of the ligands and complexes were between 40 and 200 µM, and 0.2 M KNO3 for the organometallic complexes or 0.1 M KCl for the Fe(II/III), Cu(II), and Zn(II) complexes were used to adjust the constant ionic strength. For HSA containing samples, complex concentrations were 50 µM, and 0.5, and 2 equiv. biomolecules were added for kinetic studies, respectively. For HSA model containing samples, complex concentrations were 50 µM, and the model concentrations were 0–150 µM and 0–500 µM, respectively, and the pH was 7.4 (PBS’). Spectra were always background and baseline corrected. The computer program HypSpec was used to obtain stability constants. Hydrolysis constants of the Fe(III), Fe(II), RuCym, and RhCp* species were included in the speciation models (see Table S4 with the data taken from References).
# The Bruker Avance III HD Ascend 500 Plus instrument (Billerica, MA, USA) was used for NMR studies. ^1H NMR spectroscopic measurements were carried out with a WATERGATE water suppression pulse scheme in the presence of 10% (v/v) D2O/H2O in most cases. DSS internal standard was added to samples to obtain reference peaks. ^1H NMR titrations were carried out for the ligand alone, and for the organometallic complexes in the presence of 0.2 M KNO3. With the AHA and FHA model peptides, the measurements were performed at pH 7.4 (PBS’) at 0.5 or 1 mM metal complex concentrations, and 1:1, 1:2 or 2:1 peptide-to-metal complex ratios were applied. NMR titrations were also performed for the Zn(II)-ligand systems using 0.1 M KCl ionic strength. […]
# [5] = cited from earlier work
# [6] = pH 7.4, cited from earlier work
# HSA site I (Trp-214) = target: T1, HSA site I (Trp-214) (Homo sapiens, UniProt P02768); design: method as in PMID 32500882; settings: cited from earlier work
# T1 construct: purchased Sigma-Aldrich (Darmstadt, Germany) A8763
# HSA site II = target: T2, HSA site II (Homo sapiens, UniProt P02768); design: method as in PMID 32500882; settings: cited from earlier work
# T2 construct: purchased Sigma-Aldrich (Darmstadt, Germany) A8763
# T2 sequence (P02768 25-609): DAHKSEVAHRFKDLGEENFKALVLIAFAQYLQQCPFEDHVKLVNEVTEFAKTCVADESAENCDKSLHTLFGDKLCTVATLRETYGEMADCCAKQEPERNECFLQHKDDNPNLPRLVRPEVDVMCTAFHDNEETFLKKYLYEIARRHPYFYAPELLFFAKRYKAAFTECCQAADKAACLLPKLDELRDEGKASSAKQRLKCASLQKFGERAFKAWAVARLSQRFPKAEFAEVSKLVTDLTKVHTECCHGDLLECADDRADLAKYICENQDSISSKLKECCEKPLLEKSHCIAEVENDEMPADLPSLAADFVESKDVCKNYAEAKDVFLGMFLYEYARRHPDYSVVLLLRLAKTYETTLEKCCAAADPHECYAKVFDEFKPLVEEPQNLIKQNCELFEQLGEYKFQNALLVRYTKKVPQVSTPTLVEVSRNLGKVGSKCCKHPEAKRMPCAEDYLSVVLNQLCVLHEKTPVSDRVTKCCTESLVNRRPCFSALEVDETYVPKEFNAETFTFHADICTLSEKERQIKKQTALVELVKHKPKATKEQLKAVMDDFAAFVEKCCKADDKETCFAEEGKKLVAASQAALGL
# T1 sequence (P02768 25-609): as above
smiles,measurement,setting,value
"O=C(O)[C@@H]1CCCN1Cc1cc(Cl)c2cccnc2c1O [HQCl-L-Pro, reference compound]",IC50,Colo205,23 ± 3 µM
same,IC50,MES-SA,23 ± 4 µM
same,log D7.4,[1]; 4 mM chloride,+0.13 ± 0.09
same,IC50,Colo320,9 ± 2 µM
same,Selectivity ratio IC50 (Colo205)/IC50 (Colo320),Colo320,2.75
same,solubility in water at physiological pH (S7.4),[2],> 10 mM
same,IC50,MES-SA/Dx5; 144 h exposure,4.3 ± 0.1 µM
same,Selectivity ratio IC50 (MES-SA)/IC50 (MES-SA/Dx5),MES-SA/Dx5; calculated from IC50 values in Table 4,5.41
same,pKa (NProH+),[3],> 11.5
same,pKa (OH),[3],7.76
same,fraction of negatively charged form,[4],36.5%
same,fraction of neutral form,[4],63.5%
Oc1c(CN2CCCCC2)ccc2cccnc12 [7-(piperidin-1-ylmethyl)quinolin-8-ol],formal potential E'1/2 of the iron complexes,[5],+21 mV vs. NHE
Cc1c(C)c(C)[c-](C)c1C.O=C(O)[C@@H]1CCC[NH+]1Cc1cc(Cl)c2ccc[n+]3c2c1[O][Rh]3[Cl].[Cl-] [RhCp*-HQCl-L-Pro],IC50,Colo205,26 ± 5 µM
same,conditional stability constant logK',[6]; calculated based on ref 12,12.98
same,log D7.4,[1]; 100 mM chloride,+0.10 ± 0.01
same,IC50,Colo320,10 ± 1 µM
same,Selectivity ratio IC50 (Colo205)/IC50 (Colo320),Colo320,2.66
same,quenching constant logKQ',HSA site I (Trp-214),5.5
same,DG marker displacement constant logKDG',HSA site II,5.6
Cc1c(C)c(C)[c-](C)c1C.[Cl][Rh]1[O]c2cccc3ccc[n+]1c23 [RhCp*-HQ],conditional stability constant logK',[6]; calculated based on ref 23,12.76
Oc1cccc2cccnc12 [8-hydroxyquinoline],formal potential E'1/2 of the iron complexes,[5],−323 mV vs. NHE

# — PMC9820345, “Metal Complexes of a 5-Nitro-8-Hydroxyquinoline-Proline Hybrid with Enhanced Water Solubility Targeting Multidrug Resistant Cancer Cells” (International Journal of Molecular Sciences, 2022)
